Active and inactive are the calls of the source.
Key:
Homo sapiens [1] = organism: Homo sapiens; test: Binding affinity to human recombinant Tau 2N4R expressed in Escherichia coli at 0.1 to 25 uM by SPR analysis
Homo sapiens [2] = organism: Homo sapiens; test: Inhibition of arachidonic acid-induced human recombinant Tau 2N4R fibrillation expressed in Escherichia coli assessed as alpha helix formation at 125 uM preincubated for 1 hr prior to arachidonic acid challenge measured 28 hrs post arachidonic challenge by CD spectroscopic analysis
Homo sapiens [3] = organism: Homo sapiens; test: Inhibition of arachidonic acid-induced human recombinant Tau 2N4R fibrillation expressed in Escherichia coli preincubated for 1 hr prior to arachidonic acid challenge measured 6 hrs post arachidonic challenge by Thioflavin-S fluorescence assay
Homo sapiens [4] = organism: Homo sapiens; test: Inhibition of human recombinant Tau 2N4R fibrillation expressed in Escherichia coli assessed as alpha helix formation at 125 uM after 1 hr by CD spectroscopic analysis
Homo sapiens [5] = organism: Homo sapiens; test: Binding affinity to human recombinant Tau 2N4R expressed in Escherichia coli assessed as change in protein conformation at 10 mM measured for 60 mins by H/D exchange mass spectrometric analysis

C/C=C(/C=O)[C@@H](CC=O)CC(=O)OCCc1ccc(O)cc1
active: Activity (Homo sapiens [1]) | inhibition (Homo sapiens [2]) | inhibition (Homo sapiens [3]) Dose-dependent effect | inhibition (Homo sapiens [4]) | Activity (Homo sapiens [5])

— ChEMBL document CHEMBL2169859, “Modulation of tau protein fibrillization by oleocanthal” (J Nat Prod, 2012)
